Key:
H9 [1] = assay: Inhibitory concentration against HIV-1 replication in acutely infected H9 lymphocytes; assay type: functional, cell-based; conditions: Homo sapiens
[2] = Therapeutic index (IC50/EC50) of compound was determined in acutely infected H9 cell; assay type: cell-based; conditions: human, acutely infected H9 cells; read-out: TI
H9 [3] = assay: Inhibitory concentration required to inhibit uninfected H9 cell growth by 50%; assay type: functional, cell-based; conditions: Homo sapiens

EC50 (H9 [1]) [µM] | Compound | selectivity ratio [2] | IC50 (H9 [3]) [µM]
0.0854 | CC1(C)Oc2ccc3cc(CBr)c(=O)oc3c2[C@@H](OC(=O)C23CCC(C)(C(=O)O2)C3(C)C)[C@H]1OC(=O)C12CCC(C)(C(=O)O1)C2(C)C (stereo partly drawn) | 40 | 3.38
0.000119 | CC1(C)Oc2ccc3cc(C(Br)Br)c(=O)oc3c2[C@@H](OC(=O)C23CCC(C)(C(=O)O2)C3(C)C)[C@H]1OC(=O)C12CCC(C)(C(=O)O1)C2(C)C (stereo partly drawn) | 26900 | 3.2
0.000188 | CC1(C)Oc2ccc3cc(CO)c(=O)oc3c2[C@@H](OC(=O)C23CCC(C)(C(=O)O2)C3(C)C)[C@H]1OC(=O)C12CCC(C)(C(=O)O1)C2(C)C (stereo partly drawn) | 188000 | 35.4
0.69 | CCN(CC)Cc1cc2ccc3c(c2oc1=O)[C@@H](OC(=O)C12CCC(C)(C(=O)O1)C2(C)C)[C@@H](OC(=O)C12CCC(C)(C(=O)O1)C2(C)C)C(C)(C)O3 (stereo partly drawn) | 62 | 43
0.00103 | CC(=O)OCc1cc2ccc3c(c2oc1=O)[C@@H](OC(=O)C12CCC(C)(C(=O)O1)C2(C)C)[C@@H](OC(=O)C12CCC(C)(C(=O)O1)C2(C)C)C(C)(C)O3 (stereo partly drawn) | 3240 | 3.34
– | CC1(C)Oc2ccc3ccc(=O)oc3c2[C@@H](OC(=O)C23CCC(C)(C(=O)O2)C3(C)C)[C@H]1OC(=O)C12CCC(C)(C(=O)O1)C2(C)C (stereo partly drawn) | 137000 | –
0.39 | CC1(C)Oc2ccc3cc(CN)c(=O)oc3c2[C@@H](OC(=O)C23CCC(C)(C(=O)O2)C3(C)C)[C@H]1OC(=O)C12CCC(C)(C(=O)O1)C2(C)C (stereo partly drawn) | – | 32.8
